Paper PMC10258794, “To Fold or Not to Fold: Diastereomeric Optimization of an α-Helical Antimicrobial Peptide” (Journal of Medicinal Chemistry, 2023)
Where two headings read alike, the source gives them in different places. Non-standard residues stand in square brackets, D forms with d. Residues, ends and D or L forms follow the SMILES beside them.

How the values were obtained:
[1] = EYPG vesicle leakage assay; format: biochemical; conditions: 10 μg/mL of compound; 10 mM TRIS, 107 mM NaCl, pH 7.4
Experimental: 5(6)-carboxyfluorescein (CF) was purchased from Sigma. EYPC, EYPG, and a Mini-Extruder were purchased from Avanti Polar Lipids. Egg PC or Egg PG thin lipid layers were prepared by evaporating a solution of 100 mg of EYPC or EYPG in 4 mL of MeOH/CHCl3 (1:1) on a rotary evaporator at room temperature and then dried in vacuo overnight. […] Extravesicular components were removed by gel filtration (Sephadex G-50) with 10 mM TRIS, 107 mM NaCl, pH 7.4 buffer. Final conditions: ∼2.5 mM PC or PG; inside: 50 mM CF, 10 mM TRIS, 10 mM NaCl, pH 7.4 buffer; outside: 10 mM TRIS, 107 mM NaCl, pH 7.4. […] The CF efflux was monitored at λem 517 nm (λex 492 nm) as a function of time after addition of the desired volume of peptide from 2 mg/mL stock in mQ water at t = 45 s, 10 and 50 μg/mL were monitored for both EYPC and EYPG. […] Fluorescence intensities were then normalized to the maximal emission intensity using I(t) = (It – I0)/(I∞ – I0) where I0 = It at peptide addition, I∞ = It at saturation of lysis.

[2] = tested on: human red blood cells; assay: Hemolysis assay (MHC)
Experimental: To determine the MHC stock solutions, 8 mg/mL peptide in PBS (pH 7.4) was prepared, and 50 μL was diluted serially by l/2 in 50 μL of PBS (pH 7.4) in a 96-well plate (Costar or Nunc, polystyrene, untreated). […] Plasma was discarded, and the pellet was re-suspended in a 15 mL Falcon tube in 5 mL of PBS. The washing was repeated three times, and the remaining pellet was re-suspended in 10 mL of PBS. The hRBC suspension (50 μL) was added to each well, and the plate was incubated at room temperature for 4 h. MHC end points were determined by visual determination of the wells after the incubation period. Controls on each plate included a blank medium control (50 μL PBS + 50 μL of hRBCs suspension) and a hemolytic activity control (mQ-deionized water 50 μL + 50 μL hRBC suspension).

[3] = CD spectroscopy, α-helix content; format: physicochemical; conditions: 5 mM DPC in 7 mM PB buffer pH 7.4, Dichroweb Contin LL set 4
Experimental: CD experiments were measured on a Jasco J-715 spectropolarimeter. All the experiments were performed using Hellma Suprasil 110-QS 0.1 cm cuvettes. For each peptide, the measurements were performed in phosphate buffer (PB, pH = 7.4, 7 mM), 10% TFE, 20% TFE, 5 mM DPC. The buffer was degassed for 10 min under high vacuum before each set of experiments. The concentration of the peptides was 0.100 mg/mL, and each sample was measured in one accumulation. The scan rate was 20 nm/min, pitch was 0.5 nm, response was 16 s, and bandwidth was 1.0 nm. The nitrogen flow was kept >8 L/min. After each measurement, the cuvettes were washed successively with milli-Q H2O and PB (pH 7.4). The baseline was recorded under the same conditions and subtracted manually. Primary CD spectra were analyzed using DichroWeb[58] and Contin-LL method (set 4).[74]

[4] = EYPC vesicle leakage assay; format: biochemical; conditions: 10 μg/mL of compound; 10 mM TRIS, 107 mM NaCl, pH 7.4
Method in brief: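 Egg PC or egg PG vesicles (~2.5 mM lipid) were loaded with 50 mM CF in 10 mM TRIS pH 7.4, with 10 mM TRIS/107 mM NaCl outside. Peptide at 10 or 50 μg/mL was added at 45 s, and CF efflux was followed at λex 492/λem 517 nm, normalized to complete lysis.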

[5] = tested on: Pseudomonas aeruginosa, Klebsiella pneumoniae, Acinetobacter baumannii, Escherichia coli, and methicillin-resistant Staphylococcus aureus; conditions: summary of Table 1
Method in brief: (§1)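 Growth inhibition is judged by eye after MTT addition, the MIC being the lowest compound concentration whose well stays yellow. Bacteria from overnight LB cultures are diluted in MH medium at pH 7.4 to roughly 5 × 10^5 CFU and incubated with doubling dilutions at 37 °C, unshaken, 16–20 h.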

[6] = tested on: E. coli W3110
Method in brief: as §1

[7] = tested on: P. aeruginosa PAO1
Method in brief: as §1

[8] = tested on: K. pneumoniae NCTC418; conditions: MH broth pH 7.4, 16–20 h, 37 °C
Method in brief: as §1

[9] = tested on: A. baumannii ATCC19606
Method in brief: as §1

[10] = tested on: S. aureus COL MRSA
Method in brief: as §1

[11] = MH broth pH 7.4, 16–20 h, 37 °C

CC(C)C[C@H](NC(=O)[C@H](CC(C)C)NC(=O)[C@H](CC(C)C)NC(=O)[C@@H](CCCCN)NC(=O)[C@H](CC(C)C)NC(=O)[C@H](CC(C)C)NC(=O)[C@@H](CCCCN)NC(=O)[C@H](CC(C)C)NC(=O)[C@H](CC(C)C)NC(=O)[C@@H](CCCCN)NC(=O)[C@@H](CCCCN)NC(=O)[C@H](CC(C)C)NC(=O)[C@H](CC(C)C)NC(=O)[C@H](CC(C)C)NC(=O)[C@@H](CCCCN)NC(=O)[C@H](CC(C)C)NC(=O)[C@H](CC(C)C)NC(=O)[C@@H](CCCCN)NC(=O)[C@H](CC(C)C)NC(=O)[C@H](CC(C)C)NC(=O)[C@@H](CCCCN)NC(=O)[C@H](N)CCCCN)C(N)=O [2ln69, (kkLLkLLkLLL)2] (H-[dK][dK]LL[dK]LL[dK]LLL[dK][dK]LL[dK]LL[dK]LLL-NH2)
EYPG vesicle leakage (%) [1]: 71%
MHC [2]: < 15.6 µg/mL
MHC ([2]; pH 7.4): <15.6 µg/mL
α-helix content (%) [3]: 82%
EYPC vesicle leakage (%) [4]: 74%
MIC, span over the five bacterial strains [5]: entirely inactive
MIC E. coli W3110 [6, 11]: >64 µg/mL
MIC E. coli W3110 ([6]; supplementary CSV, ranges of Table 1 given as one number): >64 µg/mL
MIC P. aeruginosa PAO1 [7, 11]: >64 µg/mL
MIC P. aeruginosa PAO1 ([7]; PAO1): >64 µg/mL
MIC K. pneumoniae NCTC418 [8]: >64 µg/mL
MIC A. baumannii ATCC19606 ([9]; ATCC19606): >64 µg/mL
MIC A. baumannii ATCC19606 [9, 11]: >64 µg/mL
MIC S. aureus COL ([10]; COL): >64 µg/mL
MIC S. aureus COL MRSA [10, 11]: >64 µg/mL
